From patent publication US20250313535A1, “ALPHA 4 BETA 7 INTEGRIN MODULATORS AND USES THEREOF” (DICE MOLECULES SV, INC., priority 2022, published 2025)

Tests used:
α4β1 integrin = α4β1 integrin (Homo sapiens (Human), UniProt P05556+P13612); experiment: Integrin Adhesion Assay: Protocol 2 (VCAM-coated plate, Jurkat cells, CellTiter GLO readout); type: cell-based; details: determined by at least one of the assays described (protocol not specified)
Procedure, shortened: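 Jurkat cells (2×10^6 per mL) adhered to VCAM-coated (0.1 ug/well), BSA-blocked wells with compound (1% DMSO) for 1 h at 37° C in 10 mM HEPES, 150 mM NaCl, 1 mM MnCl2, 0.1 mM CaCl2. After four washes, bound cells were quantified by CellTiter-Glo luminescence. Percent inhibition versus DMSO and control-compound wells was fitted to a 4-parameter curve.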

α4β7 integrin = α4β7 integrin (Homo sapiens (Human), UniProt P13612+P26010); experiment: Integrin Adhesion Assay: Protocol 1 (MAdCAM-coated plate, RPMI-8866 cells, CellTiter GLO readout); type: cell-based; details: integrin adhesion assay; determined by at least one of the assays described (protocol not specified)
Chain of α4β7 integrin (P13612 34-1032): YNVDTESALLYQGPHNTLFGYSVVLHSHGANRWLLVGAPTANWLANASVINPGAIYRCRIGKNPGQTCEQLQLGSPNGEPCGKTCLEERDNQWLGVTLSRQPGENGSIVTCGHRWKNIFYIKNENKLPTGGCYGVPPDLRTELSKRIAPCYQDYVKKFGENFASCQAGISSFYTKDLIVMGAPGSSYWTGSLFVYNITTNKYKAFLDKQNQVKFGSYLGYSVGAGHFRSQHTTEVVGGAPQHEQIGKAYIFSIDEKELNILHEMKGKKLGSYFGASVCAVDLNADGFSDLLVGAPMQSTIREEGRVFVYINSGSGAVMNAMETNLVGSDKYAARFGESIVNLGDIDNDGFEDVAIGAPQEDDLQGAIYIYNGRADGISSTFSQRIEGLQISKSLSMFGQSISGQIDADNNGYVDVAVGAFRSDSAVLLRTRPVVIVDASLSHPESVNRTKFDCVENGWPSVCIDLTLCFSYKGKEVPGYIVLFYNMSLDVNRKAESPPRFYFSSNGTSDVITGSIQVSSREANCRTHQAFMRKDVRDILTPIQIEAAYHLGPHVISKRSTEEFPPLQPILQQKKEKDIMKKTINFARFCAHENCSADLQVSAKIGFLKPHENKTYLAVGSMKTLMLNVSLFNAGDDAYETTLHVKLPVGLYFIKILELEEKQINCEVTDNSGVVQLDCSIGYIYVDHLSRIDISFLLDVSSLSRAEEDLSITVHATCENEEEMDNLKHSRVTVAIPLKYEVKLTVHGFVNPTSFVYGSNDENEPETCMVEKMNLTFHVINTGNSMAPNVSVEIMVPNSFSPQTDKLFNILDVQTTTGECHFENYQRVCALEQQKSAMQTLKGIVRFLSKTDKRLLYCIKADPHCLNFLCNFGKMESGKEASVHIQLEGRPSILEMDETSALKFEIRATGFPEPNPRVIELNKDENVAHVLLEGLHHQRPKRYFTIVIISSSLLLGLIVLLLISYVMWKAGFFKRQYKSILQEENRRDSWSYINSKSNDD
Chain of α4β7 integrin (P26010 20-798): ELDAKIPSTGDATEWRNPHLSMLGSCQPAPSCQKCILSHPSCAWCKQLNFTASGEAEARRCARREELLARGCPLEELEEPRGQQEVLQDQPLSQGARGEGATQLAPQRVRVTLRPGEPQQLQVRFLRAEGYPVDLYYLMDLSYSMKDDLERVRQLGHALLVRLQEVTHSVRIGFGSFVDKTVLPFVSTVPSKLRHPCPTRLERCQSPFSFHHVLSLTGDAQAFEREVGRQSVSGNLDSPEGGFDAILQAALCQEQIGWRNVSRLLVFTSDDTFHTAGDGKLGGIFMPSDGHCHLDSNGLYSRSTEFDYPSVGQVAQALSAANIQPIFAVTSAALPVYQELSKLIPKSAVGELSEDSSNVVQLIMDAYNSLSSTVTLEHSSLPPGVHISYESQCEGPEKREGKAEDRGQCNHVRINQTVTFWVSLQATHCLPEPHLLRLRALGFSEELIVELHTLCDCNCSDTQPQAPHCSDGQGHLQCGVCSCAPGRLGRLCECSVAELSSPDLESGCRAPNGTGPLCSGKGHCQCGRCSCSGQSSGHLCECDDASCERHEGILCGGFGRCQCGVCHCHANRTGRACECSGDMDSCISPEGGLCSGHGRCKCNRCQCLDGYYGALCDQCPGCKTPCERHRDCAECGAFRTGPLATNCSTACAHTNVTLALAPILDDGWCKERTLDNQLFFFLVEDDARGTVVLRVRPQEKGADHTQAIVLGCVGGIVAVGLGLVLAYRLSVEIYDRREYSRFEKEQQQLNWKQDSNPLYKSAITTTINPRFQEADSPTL
Procedure, shortened: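 RPMI-8866 cells (2×10^6 per mL) added with compounds (1% DMSO) to MAdCAM-coated wells blocked in HEPES/NaCl buffer with 1 mM MnCl2, 0.1 mM CaCl2, 1% BSA; 1 h at 37° C, 5% CO2. After four washes, bound cells read by CellTiter GLO luminescence; % inhibition vs DMSO and control wells, 4-parameter fit.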

patients = details: clinical trials; at the end of one year of treatment; cited from earlier work

Chain of α4β1 integrin (P13612 34-1032): as the sequence (P13612 34-1032) above
Chain of α4β1 integrin (P05556 21-798): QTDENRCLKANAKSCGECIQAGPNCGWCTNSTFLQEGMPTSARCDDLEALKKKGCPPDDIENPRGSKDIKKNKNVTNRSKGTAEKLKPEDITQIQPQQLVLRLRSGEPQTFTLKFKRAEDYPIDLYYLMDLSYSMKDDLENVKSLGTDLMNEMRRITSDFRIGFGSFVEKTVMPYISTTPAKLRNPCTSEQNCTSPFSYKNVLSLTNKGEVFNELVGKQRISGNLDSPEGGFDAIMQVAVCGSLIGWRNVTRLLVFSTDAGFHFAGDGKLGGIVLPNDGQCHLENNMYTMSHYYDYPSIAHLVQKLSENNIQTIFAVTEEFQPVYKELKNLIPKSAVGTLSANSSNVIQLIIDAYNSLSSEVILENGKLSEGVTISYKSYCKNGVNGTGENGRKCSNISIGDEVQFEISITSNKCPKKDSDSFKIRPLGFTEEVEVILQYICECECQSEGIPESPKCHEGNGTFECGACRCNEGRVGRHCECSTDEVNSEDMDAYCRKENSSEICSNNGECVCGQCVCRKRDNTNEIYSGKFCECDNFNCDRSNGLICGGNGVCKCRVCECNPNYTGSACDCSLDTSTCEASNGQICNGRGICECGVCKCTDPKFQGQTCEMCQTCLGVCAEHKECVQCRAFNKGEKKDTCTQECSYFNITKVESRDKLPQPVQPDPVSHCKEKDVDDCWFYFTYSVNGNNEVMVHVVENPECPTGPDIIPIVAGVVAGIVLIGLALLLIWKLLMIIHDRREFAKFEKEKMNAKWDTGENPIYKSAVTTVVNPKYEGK

Molecule | IC50 (α4β1 integrin) | IC50 (α4β7 integrin) | patients receiving ENTYVIO achieved remission (patients)
Cn1ccc(C(F)(F)F)c(-c2nccc3c(C[C@H](NC(=O)c4c(F)cc(N5CCOC[C@H]5C5CC5)cc4F)C(=O)O)cccc23)c1=O [Compound 257] | > 1000 nM | 10 to 100 nM | 
Cn1ccc(=O)n(-c2cccc3c(C[C@H](NC(=O)[C@@]4(C)CCCN(CC(F)(F)F)CC4)C(=O)O)cccc23)c1=O [Compound 157] | > 1000 nM | 10 to 100 nM | 
Cn1ccc(=O)n(-c2cccc3c(C[C@H](NC(=O)c4c(F)cc(N5CCOC[C@@H]5C(F)(F)F)cc4CN4CCCC4)C(=O)O)cccc23)c1=O [Compound 48] | 100 to 1000 nM | < 10 nM | 
CCC1(C(=O)N[C@@H](Cc2cccc3c(-n4c(=O)ccn(C)c4=O)cccc23)C(=O)O)CCN(CC(F)(F)F)CC1 [Compound 152] | 100 to 1000 nM | 10 to 100 nM | 
Cn1c(CCN2CC(F)C2)cc(=O)n(-c2cccc3c(C[C@H](NC(=O)c4c(F)cc(N5CCOC[C@@H]5C(F)(F)F)cc4F)C(=O)O)cccc23)c1=O [Compound 169] | > 1000 nM | < 10 nM | 
Cn1ccc(=O)n(-c2cccc3c(C[C@H](NC(=O)C45CCN(CC4)CC5)C(=O)O)cccc23)c1=O [Compound 62] | > 1000 nM | > 1000 nM | 
vedolizumab [ENTYVIO] |  |  | approximately 30%
CC(C)CN1CCC(C)(C(=O)N[C@@H](Cc2cccc3c(-n4c(=O)ccn(C)c4=O)cccc23)C(=O)O)CC1 [Compound 59] | > 1000 nM | 10 to 100 nM | 
Cn1ccc(=O)n(-c2cccc3c(C[C@H](NC(=O)C(C)(C)c4ccc(Oc5ccccc5)cc4)C(=O)O)cccc23)c1=O [Compound 178] | > 1000 nM | > 1000 nM | 
O=C(N[C@@H](Cc1cccc2c(-c3nccc4ccncc34)cccc12)C(=O)O)c1c(F)cc(N2CCOC[C@@H]2C(F)(F)F)cc1F [Compound 23] | > 1000 nM | < 10 nM | 
Cn1ccc(C(F)(F)F)c(-c2nccc3c(C[C@H](NC(=O)c4c(F)cc(N5CCOC[C@@H]5C5CC5)cc4F)C(=O)O)cccc23)c1=O [Compound 251] | > 1000 nM | < 10 nM | 
Cn1ccc(C(F)(F)F)c(-c2nccc3c(C[C@H](NC(=O)c4c(F)cc(NCC(F)(F)F)cc4CN4CCCC4)C(=O)O)cccc23)c1=O [Compound 254] | > 1000 nM | < 10 nM | 
CCOCc1cc(OC)c(-c2nccc3c(C[C@H](NC(=O)c4c(F)cc(N5CCOC[C@@H]5C(F)(F)F)cc4F)C(=O)O)cccc23)c(OC)c1 [Compound 259] | 100 to 1000 nM | < 10 nM | 
CCOCc1cc(OC)c(-c2cccc3c(C[C@H](NC(=O)c4c(F)cccc4F)C(=O)O)cccc23)c(OC)c1 [Compound 172] | 100 to 1000 nM | 10 to 100 nM | 
Cn1ccc(C(F)(F)F)c(-c2nccc3c(C[C@H](NC(=O)c4c(F)cc(CN5CCOCC5)cc4F)C(=O)O)cccc23)c1=O [Compound 246] | > 1000 nM | 100 to 1000 nM | 
CNC(=O)[C@@H]1CCN1C(=O)c1ccc2cc(C(=O)N[C@@H](Cc3cccc4c(-n5c(=O)ccn(C)c5=O)cccc34)C(=O)O)ccc2c1 [Compound 127] | > 1000 nM | > 1000 nM | 
Cn1ccc(C(F)(F)F)c(-c2nccc3c(C[C@H](NC(=O)c4c(F)cc(N(CC(F)(F)F)CC(F)(F)F)cc4CN4CCCC4)C(=O)O)cccc23)c1=O [Compound 252] | > 1000 nM | < 10 nM | 
Cn1ccc(=O)n(-c2cccc3c(C[C@H](NC(=O)C(C)(C)c4cccc(-c5ccccc5)c4)C(=O)O)cccc23)c1=O [Compound 176] | > 1000 nM | 100 to 1000 nM | 

Continued, in another order:

IC50 (α4β1 integrin) | IC50 (α4β7 integrin) | Molecule | patients receiving ENTYVIO achieved remission (patients)
100 to 1000 nM | 10 to 100 nM | Cn1ccc(=O)n(-c2cccc3c(C[C@H](NC(=O)c4c(F)cccc4F)C(=O)O)cccc23)c1=O [Compound 1] | 
> 1000 nM | 10 to 100 nM | Cn1ccc(=O)n(-c2cccc3c(C[C@H](NC(=O)c4cc5ncn(CC(F)(F)F)c5cc4F)C(=O)O)cccc23)c1=O [Compound 124] | 
> 1000 nM | 10 to 100 nM | CC(C)Oc1cc(F)c(C(=O)N[C@@H](Cc2cccc3c(-n4c(=O)ccn(C)c4=O)cccc23)C(=O)O)c(F)c1 [Compound 30] | 
> 1000 nM | 100 to 1000 nM | Cn1ccc(=O)n(-c2cccc3c(C[C@H](NC(=O)C4(C)CCC(C)(C)CC4)C(=O)O)cccc23)c1=O [Compound 162] | 
> 1000 nM | 100 to 1000 nM | Cn1ccc(=O)n([C@H]2CCc3c(C[C@H](NC(=O)c4c(F)cccc4F)C(=O)O)cccc32)c1=O (single isomer, unassigned) [Compound 282] | 
> 1000 nM | 10 to 100 nM | Cn1cc(CCN2CC(F)C2)c(=O)n(-c2cccc3c(C[C@H](NC(=O)c4c(F)cccc4F)C(=O)O)cccc23)c1=O [Compound 118] | 
> 1000 nM | 10 to 100 nM | COc1cc(F)c(C(=O)N[C@@H](Cc2cccc3c(-n4c(=O)ccn(C)c4=O)cccc23)C(=O)O)c(F)c1 [Compound 28] | 
100 to 1000 nM | 10 to 100 nM | Cn1ccc(C(F)(F)F)c(-c2cccc3c(C[C@H](NC(=O)c4c(F)cccc4F)C(=O)O)cccc23)c1=O [Compound 115] | 
> 1000 nM | 100 to 1000 nM | COC(=O)[C@H](Cc1cccc2c(-n3c(=O)ccn(C)c3=O)cccc12)NC(=O)c1c(F)cccc1CN1CCOCC1 [Compound 168] | 
100 to 1000 nM | < 10 nM | Cn1ccc(=O)n(-c2cccc3c(C[C@H](NC(=O)c4c(F)cc(N5CCOC[C@@H]5C(F)(F)F)cc4F)C(=O)O)cccc23)c1=O [Compound 108] | 
100 to 1000 nM | < 10 nM | Cn1ccc(=O)n(-c2cccc3c(C[C@H](NC(=O)c4c(F)cc5c(c4F)CS(=O)(=O)N5)C(=O)O)cccc23)c1=O [Compound 43] | 
> 1000 nM | < 10 nM | Cn1ccc(C(F)(F)F)c(-c2nccc3c(C[C@H](NC(=O)c4c(F)cccc4F)C(=O)O)cccc23)c1=O [Compound 210] | 
> 1000 nM | < 10 nM | CC[C@@H](Nc1cc(F)c(C(=O)N[C@@H](Cc2cccc3c(-n4c(=O)ccn(C)c4=O)cccc23)C(=O)O)c(F)c1)C(F)(F)F [Compound 112] | 
> 1000 nM | > 1000 nM | Cn1ccc(=O)n(-c2cccc3c(C[C@H](NC(=O)c4c(F)cc(CN5CCC5)cc4F)C(=O)O)cccc23)c1=O [Compound 33] | 
